Here are results for one compound from the NIST ThermoML archive (doi:10.1021/je9005097).

± gives the expanded uncertainty stated by the source.

The conditions of series [1]: Crystal; DTA.
Series [2] in a line: Molar enthalpy of transition or fusion. The settings on record: Crystal; DSC.

Regarding `Oc1cc(O)c2cc1Cc1cc(c(O)cc1O)Cc1cc(c(O)cc1O)Cc1cc(c(O)cc1O)C2`, the Normal melting temperature in series [1] came out at 305.5 ± 1 °C. For the same compound, the “Molar enthalpy of transition or fusion” value in series [2] turned out to be 38.2 ± 1.1 kJ/mol.
